Structures are written as SMILES.

For the first experiment, the target named is T1, human wild-type (WT)-pendrin (Homo sapiens, UniProt O43511).
T1 construct: expressed in transfected cells
T1 sequence (O43511 1-780): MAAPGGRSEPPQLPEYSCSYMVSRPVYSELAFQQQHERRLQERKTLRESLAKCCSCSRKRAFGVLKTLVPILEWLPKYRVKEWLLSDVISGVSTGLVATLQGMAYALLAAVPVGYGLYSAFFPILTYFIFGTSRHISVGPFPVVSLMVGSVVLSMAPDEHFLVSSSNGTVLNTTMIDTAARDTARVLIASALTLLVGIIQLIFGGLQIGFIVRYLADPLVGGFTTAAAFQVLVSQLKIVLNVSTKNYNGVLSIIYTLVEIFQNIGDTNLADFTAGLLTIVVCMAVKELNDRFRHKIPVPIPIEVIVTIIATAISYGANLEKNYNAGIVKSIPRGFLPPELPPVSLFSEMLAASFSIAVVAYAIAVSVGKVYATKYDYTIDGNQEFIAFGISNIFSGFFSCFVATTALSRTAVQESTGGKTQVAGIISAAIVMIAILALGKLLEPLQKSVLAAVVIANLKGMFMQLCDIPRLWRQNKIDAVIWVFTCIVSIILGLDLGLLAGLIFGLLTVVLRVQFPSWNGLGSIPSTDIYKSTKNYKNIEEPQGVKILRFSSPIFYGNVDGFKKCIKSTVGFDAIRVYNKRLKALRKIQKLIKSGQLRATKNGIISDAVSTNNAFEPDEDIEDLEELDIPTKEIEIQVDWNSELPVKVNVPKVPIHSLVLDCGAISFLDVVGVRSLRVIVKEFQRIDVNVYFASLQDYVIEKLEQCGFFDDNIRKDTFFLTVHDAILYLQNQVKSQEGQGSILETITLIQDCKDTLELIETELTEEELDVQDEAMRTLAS
Kind of experiment: Pendrin-mediated Cl^−/I^− exchange activity, YFP fluorescence in CHO-K1 cells. The class given is cell-based. To be noted: CHO-K1, 30 μM; read-out: Pendrin inhibitory activity at 30 μM (%).
With `COc1ccc(C2=NC(=C3C=C(c4cccs4)Oc4ccccc43)C(=O)O2)cc1` [F75, 2-(4-Methoxyphenyl)-4-(2-(thiophen-2-yl)-4H-chromen-4-ylidene)oxazol-5 (4H)-one], the inhibition at 30 µM turned out to be 2.3%. As for `O=C1OC(c2ccccc2)=NC1=Cc1ccccc1[N+](=O)[O-]` [F57, 4-(2-Nitrobenzylidene)-2-phenyloxazol-5(4H)-one], the inhibition at 30 µM came out at 16.1%. `CC(C)(C)c1ccc(C(=O)NC(=Cc2cccn2-c2ccccc2)C(=O)O)cc1` [G13, 2-(4-(tert-butyl)benzamido)-3-(1-phenyl-1H-pyrrol-2-yl)acrylate]: the inhibition at 30 µM is 22.4%. For the molecule `Cc1ncsc1C=C(NC(=O)c1ccc(C(C)(C)C)cc1)C(=O)O` [G9, 2-(4-(tert-butyl)benzamido)-3-(4-methylthiazol-5-yl)acrylate], the inhibition at 30 µM was 3.9%. Still for that read-out and setting: the same measure for `CCCCCc1ccc(C(=O)NC(=Cc2cccs2)C(=O)O)cc1` [G40, 2-(4-Pentylbenzamido)-3-(thiophen-2-yl)acrylate]: 88.6%. As to `CCCc1ccc(C2=NC(=Cc3scnc3C)C(=O)O2)cc1` [F137, 4-((4-Methylthiazol-5-yl)methylene)-2-(4-propylphenyl)oxazol-5(4H)-one], the inhibition at 30 µM was determined as 3.1%. With `O=C1OC(c2ccc(C(F)(F)F)cc2)=NC1=Cc1cccs1` [F1, 4-(thiophen-2-ylmethylene)-2-(4-(trifluoromethyl)phenyl)oxazol-5 (4H)-one], the inhibition at 30 µM was determined as 2.6%. As for `CC(C)(C)c1ccc(C(=O)NC(=Cc2csc3ccccc23)C(=O)O)cc1` [G25, 3-(Benzo[b]thiophen-3-yl)-2-(4-(tert-butyl)benzamido)acrylate], the inhibition at 30 µM is 42.1%. On the same count and under the same terms, the same measure for `CC(C)(C)c1ccc(C2=NC(=Cc3cnn(-c4ccccc4)c3)C(=O)O2)cc1` [F124, 2-(4-(tert-butyl)phenyl)-4-((1-phenyl-1H-pyrazol-4-yl)methylene)oxazol-5 (4H)-one]: 2%; for `Cc1nn(-c2ccccc2)c(Cl)c1C=C1N=C(c2cccc(Br)c2)OC1=O` [F71, 2-(3-Bromophenyl)-4-((5-chloro-3-methyl-1-phenyl-1H-pyrazol-4-yl)methylene)oxazol-5(4H)-one]: 4.4%. As for `O=C(O)C(=Cc1ccsc1)NC(=O)c1ccc2ccccc2c1` [G24, 2-(2-Naphthamido)-3-(thiophen-3-yl)acrylate], the inhibition at 30 µM worked out at 1.9%. Consider `CC(C)(C)c1ccc(C2=NC(=Cc3ccnc4ccccc34)C(=O)O2)cc1` [F13, 2-(4-(tert-butyl)phenyl)-4-(quinolin-4-ylmethylene)oxazol-5 (4H)-one], for which the inhibition at 30 µM was found to be 3.8%. For the molecule `O=C1OC(c2cccc3ccccc23)=NC1=Cc1ccc[nH]1` [F30, 4-((1H-pyrrol-2-yl)methylene)-2-(naphthalen-1-yl)oxazol-5(4H)-one], the inhibition at 30 µM is 3.9%. For the molecule `CC(C)c1ccc(C=C2N=C(c3cccc4ccccc34)OC2=O)cc1` [F62, 4-(4-Isopropylbenzylidene)-2-(naphthalen-1-yl)oxazol-5 (4H)-one], the inhibition at 30 µM amounted to 2.4%. As for `CCCCCc1ccc(C2=NC(=Cc3ccco3)C(=O)O2)cc1` [F141, 4-(Furan-2-ylmethylene)-2-(4-pentylphenyl)oxazol-5(4H)-one], the inhibition at 30 µM worked out at 1.9%.

As for `CCN(CC)S(=O)(=O)c1cccc(C2=NC(=Cc3cnn(C)c3)C(=O)O2)c1` [F131, N,N-diethyl-3-(4-((1-methyl-1H-pyrazol-4-yl)methylene)-5-oxo-4,5-dihydrooxazol-2-yl)benzenesulfonamide], the inhibition at 30 µM amounted to 2.1%.

With `O=C1OC(c2ccc(C(F)(F)F)cc2)=NC1=Cc1ccc[nH]1` [F17, 4-((1H-pyrrol-2-yl)methylene)-2-(4-(trifluoromethyl)phenyl)oxazol-5(4H)-one], the inhibition at 30 µM came out at 6.9%.

In the case of `Cc1ccc(C=C2N=C(c3cccs3)OC2=O)s1` [F115, 4-((5-Methylthiophen-2-yl)methylene)-2-(thiophen-2-yl)oxazol-5(4H)-one], the inhibition at 30 µM was 2.8%. As to `COC(=O)C(=Cc1ccco1)NC(=O)c1ccc(C(C)(C)C)cc1` [G4, Methyl 2-(4-(tert-butyl)beznamido)-3-(furan-2-yl)acrylate], the inhibition at 30 µM came to 4.4%. Same read-out and setting: for `O=C1OC(c2ccccc2)=NC1=C1C=C(c2ccccc2)SC(c2ccccc2)=C1` [F85, 4-(2,6-Diphenyl-4H-thiopyran-4-ylidene)-2-phenyloxazol-5(4H)-one] the value was 2.9%. As to `CC(=O)Nc1ccc(C2=NC(=Cc3ccc(N(C)C)s3)C(=O)O2)cc1` [F108, N-(4-(4-((5-(dimethylamino)thiophen-2-yl)methylene)-5-oxo-4,5-dihydrooxazol-2-yl)phenyl) acetamide], the inhibition at 30 µM amounted to 2.3%. `O=C1OC(c2ccccc2Cl)=NC1=Cc1cccs1` [F92, 2-(2-Chlorophenyl)-4-(thiophen-2-ylmethylene)oxazol-5(4H)-one]: the inhibition at 30 µM worked out at 2.2%. On to `Cc1ccc(C=C2N=C(c3ccc(C)s3)OC2=O)s1` [F119, 2-(5-methylthiophen-2-yl)-4-((5-methylthiophen-2-yl)methylene)oxazol-5 (4H)-one], for which the inhibition at 30 µM was 1.7%. With `CCCCCCc1ccc(C(=O)NC(=Cc2cccs2)C(=O)O)cc1` [G37, 2-(4-Hexylbenzamido)-3-(thiophen-2-yl)acrylate], the inhibition at 30 µM came to 97.9%. As for `O=C1OC(c2ccc(Br)cc2)=NC1=Cc1ccco1` [F50, 2-(4-Bromophenyl)-4-(furan-2-ylmethylene)oxazol-5 (4H)-one], the inhibition at 30 µM amounted to 3.7%. As to `CC(C)Cc1ccc(C2=NC(=Cc3ccco3)C(=O)O2)cc1` [F19, 4-(Furan-2-ylmethylene)-2-(4-isobutylphenyl)oxazol-5 (4H)-one], the inhibition at 30 µM was 54.8%. In the case of `CCCc1ccc(C(=O)NC(=Cc2cccs2)C(=O)O)cc1` [G30, 2-(4-Propylbenzamido)-3-(thiophen-2-yl)acrylate], the inhibition at 30 µM came out at 29.7%. On to `CCCCc1ccc(C2=NC(=Cc3cccs3)C(=O)O2)cc1` [F53, 2-(4-Butylphenyl)-4-(thiophen-2-ylmethylene)oxazol-5(4H)-one], for which the inhibition at 30 µM came out at 3.1%. With `Cc1ccc(/C=C2\N=C(c3ccc(C4=N/C(=C\c5ccc(C)o5)C(=O)O4)cc3)OC2=O)o1` [F79, 2,2′-(1,4-phenylene)bis(4-((5-methylfuran-2-yl)methylene)oxazol-5(4H)-one)], the inhibition at 30 µM came out at 3.2%. For `COc1cccc(C2=NC(=Cc3cccs3)C(=O)O2)c1` [F104, 2-(3-Methoxyphenyl)-4-(thiophen-2-ylmethylene)oxazol-5(4H)-one], the inhibition at 30 µM is 3.5%. With `CC(C)(C)c1ccc(C2=NC(=Cc3ccccc3)C(=O)O2)cc1` [F44, 4-Benzylidene-2-(4-(tert-butyl)phenyl)oxazol-5 (4H)-one], the inhibition at 30 µM amounted to 3.5%. On the same count and under the same terms, the same measure for `O=C1OC(c2ccc(Cl)cc2)=NC1=Cc1cccs1` [F88, 2-(4-Chlorophenyl)-4-(thiophen-2-ylmethylene)oxazol-5(4H)-one]: 2.4%. For the molecule `Cc1ccc(C2=NC(=Cc3cccs3)C(=O)O2)cc1I` [F63, 2-(3-Iodo-4-methylphenyl)-4-(thiophen-2-ylmethylene)oxazol-5(4H)-one], the inhibition at 30 µM was 1.6%.

As to `CC(C)Oc1ccc(C2=NC(=Cc3cnn(Cc4ccccc4)c3)C(=O)O2)cc1` [F130, 4-((1-Benzyl-1H-pyrazol-4-yl)methylene)-2-(4-isopropoxyphenyl)oxazol-5 (4H)-one], the inhibition at 30 µM turned out to be 2.7%. For the molecule `CSc1ccc(C=C2N=C(c3ccc(C(C)(C)C)cc3)OC2=O)cc1` [F43, 2-(4-(tert-butyl)phenyl)-4-(4-(methylthio)benzylidene)oxazol-5 (4H)-one], the inhibition at 30 µM stood at 5.4%. Consider `COC(=O)c1ccc(C2=NC(=Cc3cccs3)C(=O)O2)cc1` [F7, Methyl 4-(5-oxo-4-(thiophen-2-ylmethylene)-4,5-dihydrooxazol-2-yl)benzoate], for which the inhibition at 30 µM was 2.8%. Regarding `CC(C)(C)c1ccc(C(=O)NC(=Cc2ccco2)C(=O)O)cc1` [G5, 2-(4-(tert-butyl)benzamido)-3-(furan-2-yl)acrylate], the inhibition at 30 µM worked out at 60.9%.

For `CC(C)(C)c1ccc(C2=NC(=Cc3ccccc3OC(F)F)C(=O)O2)cc1` [F122, 2-(4-(tert-butyl)phenyl)-4-(2-(difluoromethoxy)benzylidene)oxazol-5(4H)-one], the inhibition at 30 µM was found to be 3.8%. As for `O=C1OC(c2cccs2)=NC1=Cc1ccc(N2CCCCC2)s1` [F120, 4-((5-(Piperidin-1-yl)thiophen-2-yl)methylene)-2-(thiophen-2-yl)oxazol-5 (4H)-one], the inhibition at 30 µM came to 1.9%.

With `Cn1cccc1C=C1N=C(c2ccc(C(C)(C)C)cc2)OC1=O` [F6, 2-(4-(tert-butyl)phenyl)-4-((1-methyl-1H-pyrrol-2-yl)methylene)oxazol-5 (4H)-one], the inhibition at 30 µM is 3.7%.

The same experiment, now with this note: compounds showing pendrin inhibitory activity of 50% or more at 30 μM; read-out: IC50.
By IC50 is commonly meant the concentration needed to halve the response being measured. Consider `CCCCCc1ccc(C(=O)NC(=Cc2cccs2)C(=O)O)cc1` [G40, 2-(4-Pentylbenzamido)-3-(thiophen-2-yl)acrylate], for which the IC50 is 13.4 ± 1.69 µM. As for `CCCCCCc1ccc(C(=O)NC(=Cc2cccs2)C(=O)O)cc1` [G37, 2-(4-Hexylbenzamido)-3-(thiophen-2-yl)acrylate], the half-maximal inhibitory concentration (IC50) stood at 8.2 ± 0.79 µM. For `CC(C)Cc1ccc(C2=NC(=Cc3ccco3)C(=O)O2)cc1` [F19, 4-(Furan-2-ylmethylene)-2-(4-isobutylphenyl)oxazol-5 (4H)-one], the 50% inhibitory concentration (IC50) turned out to be 20.1 ± 2.46 µM. On to `CC(C)(C)c1ccc(C(=O)NC(=Cc2ccco2)C(=O)O)cc1` [G5, 2-(4-(tert-butyl)benzamido)-3-(furan-2-yl)acrylate], for which the IC50 was found to be 22.6 ± 2.46 µM.

(Values after patent US12691101B2, “Compound and method for preventing or treating of respiratory diseases comprising the same as an active ingredient” (YONSEI UNIVERSITY, UNIVERSITY - INDUSTRY FOUNDATION (UIF), priority 2019, dated 2026).)
